“Also recorded” adds a separate entry of the source.
Tests used:
[1] = test system: glucocorticoid-treated mice; experiment: 56 day mouse model of glucocorticoid-induced osteonecrosis: femur blood vessel / vascular density by microCT; type: in vivo
Protocol: FIG. 2. Blood vessel density of femurs from glucocorticoid-treated mice. 4 month old male mice were treated glucocorticoid (“GC”) or placebo for 56 days. At day 28 a group of glucocorticoid-treated mice were treated with LLP2A-Ale or PTH for an additional 28 days.
FIG. 3. Vascular density of femurs from glucocorticoid-treated mice. 4 month old male mice were treated with glucocorticoid or placebo for 56 days. At day 28 a group of glucocorticoid-treated mice were treated with LLP2A-Ale or PTH for an additional 28 days. At day 56 animals were given a contrast agent and then sacrificed and then the animals femurs were decalcified and then scanned by microCT.
The efficacy of LLP2A-Ale was evaluated using a mouse model of glucocorticoid-induced osteonecrosis. 4-month-old male mice were treated for 56 days with glucocorticoids. At day 28, a group of mice was treated with either LLP2A-Ale or PTH for an additional 28 days. Blood vessel density of the femur was measured after sacrifice by microCT according to published methods. […] Vascular density of the femurs of glucocorticoid-treated mice subsequently treated with LLP2A-Ale or PTH was also assessed by giving the mice a contrast agent, then sacrificing the mice, decalcifying the femurs, and scanning the femurs by microCT. […] Without being bound to a particular theory, it is believed that LLP2A-Ale promotes increased vascularity by bringing MSCs to the bone that is turning over with osteonecrosis, which stimulates new blood vessel formation, which in turn is needed to stimulate new bone formation in the osteonecrotic bone.

osteocytes = experiment: Cortical bone osteocyte apoptosis (TUNEL) in glucocorticoid-treated mice; type: in vivo; conditions: GC 56 days, one dose of LLP2A-Ale at day 28, sacrifice day 56, TUNEL (FIG. 5)
Protocol: FIG. 5. Cortical bone osteocyte apoptosis. Mice were treated with PL for 56 days, GC alone for 56 days or GC alone for 28 days, then GC plus one dose of LLP2A-Ale at day 28. Animals were sacrificed at day 56 and the percent of osteocytes that were apoptotic were measured.
Osteocytes die from loss of blood supply and also from glucocorticoid treatment. […] The animals were sacrificed at day 56, the bones were decalcified and then TUNEL assays were performed to determine the number of apoptotic osteocytes. Glucocorticoid treatment alone, at day 56 increased the number of osteocytes that were apoptotic.

[2] = test system: glucocorticoid-treated mice; experiment: Trabecular bone volume in glucocorticoid-treated mice; type: in vivo; conditions: GC 28 days then treatment
Protocol: FIG. 6. Trabecular bone volume in glucocorticoid-treated mice. Mice were treated for 28 days with glucocorticoid (GC), then treated with either LLP2A-Ale, PTH, or LLP2A-Ale+PTH. The outcome measure was the change in trabecular bone mass from day 28 to 56, measured in vivo at the distal femur (left panel) and change in trabecular bone mass for the vertebral trabecular bone volume (right panel).
Changes in trabecular bone mass during the treatment period for the distal femur and vertebral trabecular bone volume were measured.

[3] = test system: dexamethasone-treated mice; experiment: Empty lacunae density in distal femoral epiphysis, 90 day model; type: in vivo, BALB/c mice; conditions: day 90
Protocol: FIG. 8A-8B. Empty lacunae density of femurs from in dexamethasone-treated mice. Mice treated with placebo (PL), dexamethasone alone (Dex), Dex+250 μg/kg LLP2A-Ale, Dex+500 μg/kg LLP2A-Ale, or Dex+750 μg/kg LLP2A-Ale as described above for FIG. 7 were assessed for empty lacunae density within the distal femoral epiphysis region. Empty lacunae density was calculated by determining the number of empty lacunae in the entire distal femoral epiphysis region divided by the total number of osteocytes within the same region for each specimen. In the Dex only group, 75% of the samples had 10% or more empty lacunae, as compared to 44-62% of the samples in LLP2A-Ale-treated groups. A higher number of LLP2A-Ale 250 μg/kg, LLP2A-Ale 500 μg/kg, and LLP2A-Ale 750 μg/kg—treated samples had less than 10% empty lacunae as compared to Dex only treatment.
Both the right and left distal femurs were fixed in 10% neutral buffered formalin and were shaken for 3 days, then decalcified in 5% EDTA until the bones were fully decalcified. The specimens were then processed in ascending concentrations of ethanol and embedded in paraffin. Tissue sections were cut into 5 microns sections, stained with hematoxylin and eosin and evaluated for the presence of osteonecrosis by bright field microscopy at 20× magnification. […] Osteonecrosis was detected using modified criteria reported by Yang el al., (a mouse model for glucocorticoid-induced osteonecrosis: Effect of a steroid holiday. J Orthop Res. 2009; 27:169-75) which defines osteonecrosis as requiring all of the following changes: (1) empty lacunae, (2) pyknotic osteocyte nuclei in areas of empty lacunae and necrosis of adjacent bone marrow, (3) presence of excessive fat cells in the bone marrow, (4) cartilage degradation and (5) presence of fibrin thrombi in the blood vessels. In addition, trabecular bone volume, adipose volume, sinusoid volume and osteoblast surface at the distal femoral epiphyses were measured. Empty lacunae density was calculated by empty lacunae/total osteocytes within the entire distal femoral epiphysis region for each sample. […]

[4] = test system: dexamethasone-treated mice; experiment: 30 and 45 day prevention study: incidence of glucocorticoid-induced osteonecrosis; type: in vivo, BALB/c mice; conditions: 30 or 45 days; Dex + LLP2A-Ale 250 or 500 μg/kg, or Dex + 40 μg/kg hPTH five times a week (FIG. 12)
Protocol: FIG. 12. Reduction in incidence of glucocorticoid-induced osteonecrosis in mice treated with recombinant LLP2A-Ale. Mice were randomized into placebo (PL) (fresh water), dexamethasone (Dex) 4 mg/l in drinking water, Dex+250 μg/kg LLP2A-Ale, Dex+500 μg/kg LLP2A-Ale, or Dex+40 μg/kg hPTH (1-34) groups for a 30 day treatment period or a 45 day treatment period. The incidence of Dex-induced osteonecrosis was 57% on day 30 and 73% on day 45.
The efficacy of LLP2A-Ale and hPTH (1-34) was evaluated over a 30 and 45 day study using a mouse model of glucocorticoid-induced osteonecrosis. Seven week-old male BALB/c mice were randomized into Placebo group (fresh water), glucocorticoid only (4 mg/L dexamethasone (Dex) in drinking water), Dex+250 μg/kg LLP2A-Ale, Dex+500 μg/kg LLP2A-Ale, or Dex+40 μg/kg hPTH (administered five times a week) for 30 or 45 days. At day 30 or 45, the mice were sacrificed. Study endpoints included histological evidence of osteonecrosis, bone mass, and prevalent blood vessels (CD31 and Endomucin expression) in the distal femur, and was performed as set forth in Example 2. Non-parametric Kruskal-Wallis tests were used to determine the differences between the groups.

In the case of `Cc1ccccc1NC(=O)Nc1ccc(CC(=O)N[C@@H](CCCCNC(=O)/C=C/c2cccnc2)C(=O)N[C@@H](CCCC(=O)O)C(=O)NC2(C(=O)NCCOCCOCCNC(=O)CCC(=O)NCCOCCOCCNC(=O)CCC(=O)N[C@@H](CCCCNC(=O)[C@H](N)CSC3CC(=O)N(CC4CCC(C(=O)NCCCC(O)(P(=O)(O)O)P(=O)(O)O)CC4)C3=O)C(N)=O)CCCCC2)cc1` (some centres unmarked) [LLP2A-Ale], the “Blood vessel density of the femur” value ([1]; 4 month old male mice, GC 56 days, LLP2A-Ale or PTH from day 28 for 28 days, microCT after sacrifice (FIG. 2)) is reported as “significantly higher than the negative control; also recorded: significantly different from all other groups”, the “Vascular density of femurs” value ([1]; contrast agent at day 56, decalcified femurs scanned by microCT (FIG. 3), vs GC alone) is reported as “increased vascular density compared to glucocorticoid alone; also recorded: increased vascular density compared to GC alone” and the “Cortical bone osteocyte apoptosis (percent of osteocytes apoptotic)” value (osteocytes) is reported as “prevented osteocyte apoptosis”. For the same compound, the “Change in trabecular bone mass/volume at the distal femur” value ([2]; change from day 28 to 56, measured in vivo (FIG. 6 left)) was “increased the distal femur trabecular bone volume to the baseline/sham level”, the “Vertebral trabecular bone volume” value ([2]; day 28 to 56 (FIG. 6 right)) was “increased the bone volume relative to the glucocorticoid-treated mice” and the “Samples with less than 10% empty lacunae” value ([3]; LLP2A-Ale 250, 500, 750 μg/kg vs Dex only) was “more samples; also recorded: higher number”. For the same compound, the “Samples with 10% or more empty lacunae” value ([3]; distal femoral epiphysis, Dex only vs LLP2A-Ale 250, 500, 750 μg/kg groups (FIG. 8A-B)) was 44-62% and the “Prevalence/incidence of glucocorticoid-induced osteonecrosis lesions (in words)” value [4] was “prevented incident GC-induced osteonecrosis lesions; also recorded: reduced the incidence and severity of osteonecrosis; also recorded: prevented glucocorticoid-induced osteonecrotic lesions”.
